The values below come from a melting point compilation (Tetko et al.; mined from patent text by program, amines drawn as free bases though some values may be those of a salt).

Broadly, the melting point is the temperature of the solid-liquid transition.

As to `Cc1ccc(S(=O)(=O)NN=C2CCCCCCC2)cc1`, the melting point fell in the range of 140 to 143 °C.

`CCCCN=C(O)c1c(Sc2ccc([N+](=O)[O-])cc2)c(Sc2ccccc2)c(Sc2ccccc2)c(Sc2ccc([N+](=O)[O-])cc2)c1C(=O)O` came in with a melting point of 175 to 177 °C.

Take `NS(=O)(=O)c1ccc(-n2nc(C(F)F)cc2-c2nc3cccc(Cl)c3s2)cc1`: the melting point lay in the range of 238 to 239 °C.

As to `CCCc1nn(C)c2c(-c3ccc(S(C)(=O)=O)cc3)nc(-c3ccc(F)cc3)nc12`, the melting point was in the range of 208 to 210 °C.

Compound `Fc1ccc(Nc2nc(N/N=C/c3c(F)cccc3F)nc(N3CCOCC3)n2)cc1` returned a melting point of 156 °C.

For the compound `Cc1csc(C2=NOCCO2)c1S(N)(=O)=O`, the melting point was 155 °C.

Consider `CSc1nc(SC)nc(-c2cc(C(C)(C)C)c(O)c(C(C)(C)C)c2)n1`, for which the melting point worked out at 94 °C.

In turn, `O=C(O)c1cn2c(n1)COc1ccccc1-2` yielded a melting point of 256 to 258 °C.

`CN(c1ccccc1-c1ccc2cnc(Nc3ccc(C4CCN(CC(N)=O)CC4)cc3)nn12)S(C)(=O)=O` showed a melting point of 170 °C.

Turning to `O=C1C2=NCCCN2c2cccc(Cl)c21`, the melting point was 170 °C.

In turn, `CCCC(=O)Nc1ccc2[nH]c(C(=O)O)cc2c1` returned a melting point of 210 °C.

Regarding `Cc1cccc(CO)c1CNc1cc(C(=O)N(C)C)cc2c1nc(C)n2C`, the melting point lay in the range of 197 to 198 °C.

Take `CN(C)C1(c2ccccc2)CCC2(CC1)NCCc1c2[nH]c2ccccc12` (stereo not drawn): the melting point was 214 to 218 °C.

For `C=CC(=O)Nc1ccc2ncnc(Nc3cccc(Br)c3)c2c1`, the melting point fell in the range of 258 to 261 °C.

With `Cc1cc(-n2ccc(OCc3ccccc3)cc2=O)sc1C(=O)NCc1cccnc1`, the melting point lay in the range of 165 to 167 °C.

`O=c1[nH]c2ccc(Cl)cc2c(=O)n1S(=O)(=O)c1ccc(Cl)cc1` returned a melting point of 223 to 225 °C.

With `CCCCCCCCOc1cccc2c1C(=O)c1cccc(OCCCCCCCC)c1C2=O`, the melting point is 90 to 94 °C.

With `N#Cc1cn(-c2ccccc2)nc1-c1ccc([N+](=O)[O-])o1`, the melting point lay in the range of 190 to 192 °C.

For `O=C1c2c(cc(O)c(Cl)c2Cl)CC1c1ccccc1` (stereo not drawn), the melting point fell in the range of 250 to 252 °C.

For `c1ccc(-c2cc3nnc(-c4ccccc4)n3nc2OCc2cscn2)cc1`, the melting point came to 236 °C.

Compound `Cc1nn(C)c(Cl)c1S(N)(=O)=O` gave a melting point of 173 °C.

In turn, `O=C(Nc1c(Cl)cncc1Cl)c1cc(OC2CCCC2)c(OC(F)F)cn1` returned a melting point of 131 to 132 °C.

With `O=C(N[C@H](Cc1ccc(C(F)(F)F)cc1)[C@@H](O)c1ccccc1)c1ccc(F)c2ccccc12` (racemic), the melting point fell in the range of 217 to 218 °C.

In turn, `COC(=O)[C@H]1CC[C@H](N2CCN(c3ccc(C4(C)CCN(C(=O)C(F)(F)F)CC4)cc3)C2=O)CC1` returned a melting point of 158 to 161 °C.

As to `COCCCCCCCCCCCC(N)=S`, the melting point was 86.8 to 89.2 °C.

Compound `Oc1ccc(N2CCN(Cc3nc4ccccc4s3)CC2)cc1` registered a melting point of 175 to 176 °C.

With `CC1CCN(S(=O)(=O)Nc2cc(C(c3cc(F)ccc3F)S(=O)(=O)c3ccc(Cl)cc3)c(Cl)cn2)CC1` (stereo not drawn), the melting point was 215 to 218 °C.

The compound `CNC(=S)NS(=O)(=O)c1cc(CCNC(=O)c2cc(Cl)ccc2OC)ccc1-c1ccco1` yielded a melting point of 145 to 146 °C.

Compound `CCC(O)C1C(N2CCN(C)CC2)=Nc2ccccc2N=C1N1CCN(C)CC1` (stereo not drawn) yielded a melting point of 163 to 166 °C.

The compound `Cc1ccc2ccc(N3C(=O)c4ccccc4C3OC(=O)CCCC(C)C)nc2n1` (stereo not drawn) yielded a melting point of 144 °C.

As to `O=c1nc(-c2cccc(CN3CCC(c4ccccc4)CC3)n2)sc2ccccc12`, the melting point was 207 to 208 °C.

Regarding `COc1cccc(Oc2c(NS(=O)(=O)c3ccc(C(C)(C)C)cc3)ncnc2OCc2ccccn2)c1`, the melting point was in the range of 206 to 208 °C.

Take `N#Cc1nc2ncccc2[nH]1`: the melting point amounted to 200 °C.
